Laboratory results: PMC12089509, “NorA Efflux Pump Inhibitors: Expanding SAR Knowledge of Pyrazolo[4,3‐c][1,2]benzothiazine 5,5‐Dioxide Derivatives” (Archiv Der Pharmazie, 2025)
Values after ≈ are worked out from the molar mass of the structure shown. Read-outs that look alike come from different tables or passages of the source.

Legend:
[1] = system: S. aureus SA-1199 (wild type); assay: MIC determination against wild-type SA-1199; type: cell-based; details: Staphylococcus aureus, compound alone
Description: (§1) This finding aligns with their mechanism of action, which involves the inhibition of NorA, which is only basally expressed in the wild‐type SA‐1199 strain.

[2] = system: S. aureus SA-K1902 (norA-); assay: Checkerboard assay EPI/CPX against SA-K1902; type: cell-based, Staphylococcus aureus
Description: (§2) Checkerboard assays were carried out using SA‐K1902 and SA‐K2378 strains according to standard procedures.

[3] = MTT cytotoxicity assay on A549; type: cell-based; details: human, A549 cells; for viability at 72 h, 12.5 µg/mL: A549, 12.5 μg/mL; for viability at 72 h, 12.5 µg/mL / viability at 72 h, 25 µg/mL / viability at 72 h, 50 µg/mL / viability at 72 h, 100 µg/mL: read-out: Cytotoxicity (% cell viability); for viability at 72 h, 25 µg/mL: A549, 25 μg/mL; for viability at 72 h, 50 µg/mL: A549, 50 μg/mL; for viability at 72 h, 100 µg/mL: A549, 100 μg/mL
Description: (§3) The MTT assay was performed on two human ATCC cell lines, that is, […] (CCL‐185) and MCF7 (HTB‐22), to test the potential cytotoxic effect of the compounds, after 72 h exposure, as previously described. Each compound was tested at concentrations ranging from 12.5 to 100 μg/mL. Untreated cells were considered as controls. The percentage of viable cells was calculated as follows: % Cell viability = 100 × treated well absorbance/untreated control well absorbance. All assays were performed once in technical quadruplicate.

[4] = system: Staphylococcus aureus SA-1199B; type: cell-based
Description: For purposes of comparison, compound 1 was included as a reference.

[5] = biological target: T1, S. aureus NorA efflux pump (SA-1199B strain, overexpresses the norA gene) (Staphylococcus aureus, UniProt P0A0J7); assay: EtBr efflux inhibition assay; type: cell-based; details: for inhibition at 50 µM: read-out: EtBr efflux inhibition (%), compound at 50 µM, SA-1199B
T1 construct: endogenous in cells; host or cells: S. aureus SA-1199B (overexpresses norA; isogenic parent SA-1199)
Description: EtBr efflux inhibition assays were conducted using the S. aureus SA‐1199B strain, which overexpresses the norA gene and has an A116E GrlA substitution. Each compound was tested at 50 µM (see Figure 2). The starting hit compound 1 was used as the internal standard for comparison with the previously reported data.
The cells were grown overnight in cation‐supplemented Mueller–Hinton broth (CAMHB) without any additives at 35°C. The organisms were subsequently diluted into CAMHB to obtain an optical density at 600 nm (OD600) of 0.7–0.8. Subsequently, the cells were pelleted and resuspended at an OD600 of 0.8 in 0.5 mL aliquots of CAMHB containing EtBr and carbonyl cyanide m‐chlorophenylhydrazone (CCCP) to “load” the cells with EtBr (final concentrations of 25 μM for EtBr and 100 μM for CCCP). Following 20 min of incubation at room temperature, the cells were pelleted and resuspended in 1 mL of fresh CAMHB. Immediately thereafter, 200 μL aliquots were transferred into the wells of white 96‐well plates, which either lacked or contained 50 or 10 μM of each test compound. Fluorescence was monitored continuously using a microplate reader (Infinite M200 Pro, TECAN) at excitation and emission wavelengths of 485 and 645 nm, respectively, for a period of 5 min. The experiments were conducted in triplicate, with two technical replicates per biological replicate. The efflux activity of the SA‐1199B strain was expressed as a percentage of fluorescence decrease over a 5‐min time course. The inhibition of this efflux by the test compounds was determined using the following equation: ([efflux in the absence] ‐ [efflux in the presence of test [compound])/[efflux in the absence of test compound] × 100, which yielded the percent efflux inhibition observed.
^a Experiments were performed in triplicate with two technical replicates per biological replicate. Efflux activity of SA-1199B was expressed as percent fluorescence decrease over a 5 min time course. Inhibition of this efflux by test compounds was determined using the equation [efflux in the absence] − [efflux in the presence of test [compound]/[efflux in the absence of test compound] × 100, giving the percent efflux inhibition observed.

[6] = system: S. aureus SA-K2378 (norA ++); assay: Checkerboard assay EPI/CPX against SA-K2378; type: cell-based, Staphylococcus aureus
Description: (§4) Conversely, interesting results were obtained against SA‐K2378, which overexpresses the norA gene (Table 2). […] This corroborates the hypothesis that their activity is strictly related to NorA EP inhibition.
as §2

[7] = system: S. aureus SA-1199 (wild type); assay: Synergistic assay with CPX against wild-type SA-1199; type: cell-based, Staphylococcus aureus; details: EPI at 3.13 µg/mL with CPX
Description: as §1

[8] = system: Staphylococcus aureus SA-1199B; assay: MIC determination (broth microdilution) against SA-1199B; type: cell-based; details: SA1199B
Description: (§5) In this study, the S. aureus strains SA‐1199B (overexpressing norA) and its isogenic parent SA‐1199 (wild type), the pair SA‐K1902 (norA‐depleted) and SA‐K2378 (complemented with a pCU1 plasmid harboring the norA promoting and coding region from SA‐1199B), were used to test EPI activity as described in a previous study. Furthermore, the S. aureus ATCC 29213 was used as the reference strain in MIC determination experiments.

[9] = system: S. aureus SA-K2378 (norA ++); assay: MIC evaluation against SA-K2378; type: cell-based, Staphylococcus aureus; details: Staphylococcus aureus
Description: as §4, §5

[10] = MTT cytotoxicity assay on MCF7; type: cell-based; details: human, MCF7 cells; for viability at 72 h, 12.5 µg/mL: MCF7, 12.5 μg/mL; for viability at 72 h, 12.5 µg/mL / viability at 72 h, 25 µg/mL / viability at 72 h, 50 µg/mL / viability at 72 h, 100 µg/mL: read-out: Cytotoxicity (% cell viability); for viability at 72 h, 25 µg/mL: MCF7, 25 μg/mL; for viability at 72 h, 50 µg/mL: MCF7, 50 μg/mL; for viability at 72 h, 100 µg/mL: MCF7, 100 μg/mL; for CC50 at 72 h: MCF7, MTT
Description: as §3

[11] = system: S. aureus SA-K1902 (norA-); assay: MIC evaluation against SA-K1902; type: cell-based, Staphylococcus aureus; details: Staphylococcus aureus
Description: as §4, §5

T1 sequence (P0A0J7 whole entry): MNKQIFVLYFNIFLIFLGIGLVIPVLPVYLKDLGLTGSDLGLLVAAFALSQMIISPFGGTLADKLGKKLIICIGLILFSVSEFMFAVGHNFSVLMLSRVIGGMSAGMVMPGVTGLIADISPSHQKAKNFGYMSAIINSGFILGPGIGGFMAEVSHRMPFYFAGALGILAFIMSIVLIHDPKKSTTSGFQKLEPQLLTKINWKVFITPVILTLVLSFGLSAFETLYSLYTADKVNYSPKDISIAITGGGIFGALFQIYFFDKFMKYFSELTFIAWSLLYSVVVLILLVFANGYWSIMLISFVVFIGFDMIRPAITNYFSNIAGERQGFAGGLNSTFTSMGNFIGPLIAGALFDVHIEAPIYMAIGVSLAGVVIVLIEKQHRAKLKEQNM

## CN1c2c(-c3ccc(Cl)cc3)n[nH]c2-c2ccccc2S1(=O)=O [Compound 10, 3‐(4‐Chlorophenyl)‐4‐methyl‐1,4‐dihydropyrazolo[4,3‐c][1,2]benzothiazine 5,5‐dioxide]
[1]
  MIC: > 50 µg/mL
[2]; EPI at 0.2 µg/mL
  CPX MIC: 0.08 µg/mL
  N° CPX MIC reduction: 2
[2]; EPI at 0.4 µg/mL
  CPX MIC: 0.08 µg/mL
  N° CPX MIC reduction: 2
[2]; EPI at 0.8 µg/mL
  CPX MIC: 0.08 µg/mL
  N° CPX MIC reduction: 2
[2]; EPI at 1.6 µg/mL
  CPX MIC: 0.08 µg/mL
  N° CPX MIC reduction: 2
[2]; EPI at 3.13 µg/mL
  CPX MIC: 0.08 µg/mL
  N° CPX MIC reduction: 2
[3]
  viability at 72 h, 12.5 µg/mL: 97 ± 2%
  viability at 72 h, 25 µg/mL: 45 ± 3%
  viability at 72 h, 50 µg/mL: 7%
  viability at 72 h, 100 µg/mL: 7 ± 2%
[3]; A549, MTT
  CC50 at 72 h: ~25 µg/mL (≈ 72.3 µM)
[4]; EPI at 12.5 µg/mL
  N° fold CPX MIC reduction: 4 fold
[5]; read-out: EtBr efflux inhibition (%), compound at 10 µM, SA-1199B
  inhibition at 10 µM: 95%
[5]
  inhibition at 50 µM: 100%
[6]; EPI at 0.2 µg/mL
  CPX MIC: 0.6 µg/mL
  N° CPX MIC reduction: 2
[6]; EPI at 0.4 µg/mL
  CPX MIC: 0.6 µg/mL
  N° CPX MIC reduction: 2
[6]; EPI at 0.8 µg/mL
  CPX MIC: 0.3 µg/mL
  N° CPX MIC reduction: 4
[6]; EPI at 1.6 µg/mL
  CPX MIC: 0.16 µg/mL
  N° CPX MIC reduction: 8
[6]; EPI at 3.13 µg/mL
  CPX MIC: 0.08 µg/mL
  N° CPX MIC reduction: 16
[7]
  synergistic effect with CPX: did not show any synergistic effect
[8]
  MIC: > 50 µg/mL
[9]
  MIC: 12.5 µg/mL (≈ 36.1 µM)
[10]
  viability at 72 h, 12.5 µg/mL: 66 ± 5%
  viability at 72 h, 25 µg/mL: 26 ± 2%
  viability at 72 h, 50 µg/mL: 7 ± 1%
  viability at 72 h, 100 µg/mL: 6%
  CC50 at 72 h: ~25 µg/mL (≈ 72.3 µM)
[11]
  MIC: 12.5 µg/mL (≈ 36.1 µM)

## O=S1(=O)Nc2c(-c3ccc(Cl)cc3)nn(-c3ccccc3)c2-c2ccccc21 [Compound 3]
[1]
  MIC: > 50 µg/mL
[2]; EPI at 0.2 µg/mL
  CPX MIC: 0.08 µg/mL
  N° CPX MIC reduction: 2
[2]; EPI at 0.4 µg/mL
  CPX MIC: 0.08 µg/mL
  N° CPX MIC reduction: 2
[2]; EPI at 0.8 µg/mL
  CPX MIC: 0.08 µg/mL
  N° CPX MIC reduction: 2
[2]; EPI at 1.6 µg/mL
  CPX MIC: 0.08 µg/mL
  N° CPX MIC reduction: 2
[2]; EPI at 3.13 µg/mL
  CPX MIC: 0.08 µg/mL
  N° CPX MIC reduction: 2
[2]; EPI at 6.25 µg/mL
  CPX MIC: 0.08 µg/mL
  N° CPX MIC reduction: 2
[2]; EPI at 12.5 µg/mL
  CPX MIC: 0.08 µg/mL
  N° CPX MIC reduction: 2
[3]
  viability at 72 h, 12.5 µg/mL: 94 ± 24%
  viability at 72 h, 25 µg/mL: 99 ± 20%
  viability at 72 h, 50 µg/mL: 101 ± 24%
  viability at 72 h, 100 µg/mL: 34 ± 10%
[4]; EPI at 3.12 µg/mL
  N° fold CPX MIC reduction: 2 fold
[5]
  inhibition at 50 µM: 7%
[6]; EPI at 0.2 µg/mL
  CPX MIC: 0.6 µg/mL
  N° CPX MIC reduction: 2
[6]; EPI at 0.4 µg/mL
  CPX MIC: 0.6 µg/mL
  N° CPX MIC reduction: 2
[6]; EPI at 0.8 µg/mL
  CPX MIC: 0.3 µg/mL
  N° CPX MIC reduction: 4
[6]; EPI at 1.6 µg/mL
  CPX MIC: 0.16 µg/mL
  N° CPX MIC reduction: 8
[6]; EPI at 3.13 µg/mL
  CPX MIC: 0.16 µg/mL
  N° CPX MIC reduction: 8
[6]; EPI at 6.25 µg/mL
  CPX MIC: 0.08 µg/mL
  N° CPX MIC reduction: 16
[7]
  synergistic effect with CPX: did not show any synergistic effect
[8]
  MIC: 25 µg/mL (≈ 61.3 µM)
[9]
  MIC: 25 µg/mL (≈ 61.3 µM)
[10]
  viability at 72 h, 12.5 µg/mL: 97 ± 10%
  viability at 72 h, 25 µg/mL: 84 ± 4%
  viability at 72 h, 50 µg/mL: 88 ± 4%
  viability at 72 h, 100 µg/mL: 66 ± 7%
  CC50 at 72 h: > 100 µg/mL
[11]
  MIC: > 50 µg/mL
